pIC50: −log10 of the molar value.
Target: T1, Estrogen Receptor Alpha Ligand binding domain (ER alpha-LBD (GST)) (Homo sapiens, UniProt P03372)
T1 construct: made in house
T1 sequence (P03372 307-554): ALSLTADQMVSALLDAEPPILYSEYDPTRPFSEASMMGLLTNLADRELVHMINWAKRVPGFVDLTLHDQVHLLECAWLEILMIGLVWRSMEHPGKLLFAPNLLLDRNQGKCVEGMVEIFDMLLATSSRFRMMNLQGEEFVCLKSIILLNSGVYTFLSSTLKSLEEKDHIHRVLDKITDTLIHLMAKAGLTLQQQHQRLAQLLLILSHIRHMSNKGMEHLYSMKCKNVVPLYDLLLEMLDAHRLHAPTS
Test: ERα Binding Assay (LanthaScreen TR-FRET competition)
Settings: competitive displacement of Fluormone ES2 tracer from recombinant human ER alpha-LBD (residues 307-554), 4 hours at room temperature
Experimental: The ability of compounds to bind to isolated Estrogen Receptor Alpha Ligand binding domain (ER alpha-LBD (GST)) was assessed in competition assays using a LanthaScreen™ Time-Resolved Fluorescence Resonance Energy Transfer (TR-FRET) detection end-point. For the LanthaScreen TR-FRET endpoint, a suitable fluorophore (Fluormone ES2, ThermoFisher, Product code P2645) and recombinant human Estrogen Receptor alpha ligand binding domain, residues 307-554 (expressed and purified in-house) were used to measure compound binding. The assay principle is that ER alpha-LBD (GST) is added to a fluorescent ligand to form a receptor/fluorophore complex. A terbium-labelled anti-GST antibody (Product code PV3551) is used to indirectly label the receptor by binding to its GST tag, and competitive binding is detected by a test compound's ability to displace the fluorescent ligand, resulting in a loss of TR-FRET signal between the Th-anti-GST antibody and the tracer. The assay was performed as follows with all reagent additions carried out using the Beckman Coulter BioRAPTR FRD microfluidic workstation: • 1. Acoustic dispense 120 nL of the test compound into a black low volume 384 well assay plates. • 2. Prepare 1×ER alpha-LBD/Tb-anti-GST Ab in ES2 screening buffer and incubate for 15 minutes. • 3. Dispense 6 μL of the 1×[…]/Th-anti-GST Ab reagent into each well of the assay plate followed by 6 μL of Fluorophore reagent into each well of the assay plate • 4. Cover the assay plate to protect the reagents from light and evaporation, and incubate at room temperature for 4 hours. • 5. Excite at 337 nm and measure the fluorescent emission signal of each well at 490 nm and 520 nm using the BMG PheraSTAR.
Compounds were dosed directly from a compound source microplate containing serially diluted compound (4 wells containing 10 mM, […] and 10 nM final compound respectively) to an assay microplate using the Labcyte Echo 550. The Echo 550 is a liquid handler that uses acoustic technology to perform direct microplate-to-microplate transfers of DMSO compound solutions and the system can be programmed to transfer multiple small nL volumes of compound from the different source plate wells to give the desired serial dilution of compound in the assay which is then back-filled to normalise the DMSO concentration across the dilution range.
In total 120 nL of compound plus DMSO were added to each well and compounds were tested in a 12-point concentration response format over a final compound concentration range of 10, 2.917, 1.042, 0.2083, 0.1, 0.0292, 0.0104, 0.002083, 0.001, 0.0002917, 0.0001042, and 0.00001 μM respectively. TR-FRET dose response data obtained with each compound was exported into a suitable software package (such as Origin or Genedata) to perform curve fitting analysis. Competitive ER alpha binding was expressed as an IC50 value. This was determined by calculation of the concentration of compound that was required to give a 50% reduction in tracer compound binding to ER alpha-LBD.

| Compound | pIC50 |
| --- | --- |
| C[C@@H]1Cc2c([nH]c3ccccc23)[C@@H](c2cnc(N3CCC(OCCCN4CCN(c5ccc6c(c5)CN(C5CCC(=O)NC5=O)C6=O)CC4)CC3)nc2)N1CC(C)(C)F (stereo partly drawn) [Example 38, 3-[5-(4-{3-[(1-{5-[(1R,3R)-2-(2-fluoro-2-methylpropyl)-3-methyl-2,3,4,9-tetrahydro-1H-beta-carbolin-1-yl]pyrimidin-2-yl}piperidin-4-yl)oxy]propyl}piperazin-1-yl)-1-oxo-1,3-dihydro-2H-isoindol-2-yl]piperidine-2,6-dione] | 8.44 |
| C[C@@H]1Cc2c([nH]c3ccccc23)[C@@H](c2cnc(N3CCC(CN4CCC5(CC4)CCN(c4ccc6c(c4)CN(C4CCC(=O)NC4=O)C6=O)CC5)CC3)nc2)N1CC(C)(C)F (mixture of isomers) [Example 7, 3-(5-{9-[(1-{5-[(1R,3R)-2-(2-fluoro-2-methylpropyl)-3-methyl-2,3,4,9-tetrahydro-1H-beta-carbolin-1-yl]pyrimidin-2-yl}piperidin-4-yl)methyl]-3,9-diazaspiro[5.5]undecan-3-yl}-1-oxo-1,3-dihydro-2H-isoindol-2-yl)piperidine-2,6-dione] | 8.33 |
| COc1cc(N2CCN(CCC3CCN(c4ncc([C@@H]5c6[nH]c7ccccc7c6C[C@@H](C)N5CC(C)(C)F)cn4)CC3)CC2)cc2c1C(=O)N(C1CCC(=O)NC1=O)C2 (stereo partly drawn) [Example 12, 3-(5-{4-[2-(1-{5-[(1R,3R)-2-(2-fluoro-2-methylpropyl)-3-methyl-2,3,4,9-tetrahydro-1H-beta-carbolin-1-yl]pyrimidin-2-yl}piperidin-4-yl)ethyl]piperazin-1-yl}-7-methoxy-1-oxo-1,3-dihydro-2H-isoindol-2-yl)piperidine-2,6-dione] | 8.82 |
| C[C@@H]1Cc2c([nH]c3ccccc23)[C@@H](c2cnc(N3CCC(CN4CCN(CC5CCN(c6ccc7c(c6)CN(C6CCC(=O)NC6=O)C7=O)CC5)CC4)CC3)nc2)N1CC(C)(C)F (some centres unmarked) [Example 6] | 8.25 |
| C[C@@H]1Cc2c([nH]c3ccccc23)[C@@H](c2cnc(N3CCC(CCN4CCC5(CC4)CCN(c4ccc6c(c4)CN(C4CCC(=O)NC4=O)C6=O)CC5)CC3)nc2)N1CC(C)(C)F (stereo partly drawn) [Example 11, 3-(5-{9-[2-(1-{5-[(1R,3R)-2-(2-fluoro-2-methylpropyl)-3-methyl-2,3,4,9-tetrahydro-1H-beta-carbolin-1-yl]pyrimidin-2-yl}piperidin-4-yl)ethyl]-3,9-diazaspiro[5.5]undecan-3-yl}-1-oxo-1,3-dihydro-2H-isoindol-2-yl)piperidine-2,6-dione] | 8.92 |
| C[C@@H]1Cc2c([nH]c3ccccc23)[C@@H](c2cnc(N3CCC(CCCN4CCN(c5ccc6c(c5)CN(C5CCC(=O)NC5=O)C6=O)CC4)CC3)nc2)N1CC(C)(C)F (stereo partly drawn) [Example 8, 3-(5-{4-[3-(1-{5-[(1R,3R)-2-(2-fluoro-2-methylpropyl)-3-methyl-2,3,4,9-tetrahydro-1H-beta-carbolin-1-yl]pyrimidin-2-yl}piperidin-4-yl)propyl]piperazin-1-yl}-1-oxo-1,3-dihydro-2H-isoindol-2-yl)piperidine-2,6-dione] | 8.37 |
| C[C@@H]1Cc2c([nH]c3ccccc23)[C@@H](c2cnc(N3CCC(CN(C)C4CN(CC5CCN(c6ccc7c(c6)CN(C6CCC(=O)NC6=O)C7=O)CC5)C4)CC3)nc2)N1CC(C)(C)F (stereo partly drawn) [Example 16, 3-(5-{4-[(3-{[(1-{5-[(1R,3R)-2-(2-fluoro-2-methylpropyl)-3-methyl-2,3,4,9-tetrahydro-1H-beta-carbolin-1-yl]pyrimidin-2-yl}piperidin-4-yl)methyl](methyl)amino}azetidin-1-yl)methyl]piperidin-1-yl}-1-oxo-1,3-dihydro-2H-isoindol-2-yl)piperidine-2,6-dione] | 8.52 |
| C[C@@H]1Cc2c([nH]c3ccccc23)[C@@H](c2cnc(N3CCC(CCCN4CCN(c5ccc6c(c5)CN(C5CCC(=O)NC5=O)C6=O)CC4)CC3)nc2)N1CC(F)(F)F (stereo partly drawn) [Example 34, 3-(5-{4-[3-(1-{5-[(1R,3R)-3-methyl-2-(2,2,2-trifluoroethyl)-2,3,4,9-tetrahydro-1H-beta-carbolin-1-yl]pyrimidin-2-yl}piperidin-4-yl)propyl]piperazin-1-yl}-1-oxo-1,3-dihydro-2H-isoindol-2-yl)piperidine-2,6-dione] | 8.14 |
| 3-[5-(9-{2-[(1S,3r)-3-({5-[(1R,3R)-2-(2-fluoro-2-methylpropyl)-3-methyl-2,3,4,9-tetrahydro-1H-beta-carbolin-1-yl]pyrimidin-2-yl}oxy)cyclobutyl]ethyl}-3,9-diazaspiro[5.5]undecan-3-yl)-1-oxo-1,3-dihydro-2H-isoindol-2-yl]piperidine-2,6-dione [Example 23] | 8.36 |
| C[C@@H]1Cc2c([nH]c3ccccc23)[C@@H](c2cnc(N3CCC(CCN4CCN(c5ccc6c(c5)CN(C5CCC(=O)NC5=O)C6=O)CC4)CC3)nc2)N1CC(C)(C)F (stereo partly drawn) [Example 2, 3-[5-[4-[2-[1-[5-[(1R,3R)-2-(2-Fluoro-2-methyl-propyl)-3-methyl-1,3,4,9-tetrahydropyrido[3,4-b]indol-1-yl]pyrimidin-2-yl]-4-piperidyl]ethyl]piperazin-1-yl]-1-oxo-isoindolin-2-yl]piperidine-2,6-dione] | 8.48 |
| C[C@@H]1Cc2c([nH]c3ccccc23)[C@@H](c2cnc(N3CCC4(CCN(CCC5CCN(c6ccc7c(c6)CN(C6CCC(=O)NC6=O)C7=O)CC5)CC4)CC3)nc2)N1CC(C)(C)F (stereo partly drawn) [Example 10, 3-(5-{4-[2-(9-{5-[(1R,3R)-2-(2-fluoro-2-methylpropyl)-3-methyl-2,3,4,9-tetrahydro-1H-beta-carbolin-1-yl]pyrimidin-2-yl}-3,9-diazaspiro[5.5]undecan-3-yl)ethyl]piperidin-1-yl}-1-oxo-1,3-dihydro-2H-isoindol-2-yl)piperidine-2,6-dione] | 7.65 |
| C[C@@H]1Cc2c([nH]c3ccccc23)[C@@H](c2cnc(N3CC(CCN4CCN(c5ccc6c(c5)CN(C5CCC(=O)NC5=O)C6=O)CC4)C3)nc2)N1CC(C)(C)F (stereo partly drawn) [Example 37, 3-(5-{4-[2-(1-{5-[(1R,3R)-2-(2-fluoro-2-methylpropyl)-3-methyl-2,3,4,9-tetrahydro-1H-beta-carbolin-1-yl]pyrimidin-2-yl}azetidin-3-yl)ethyl]piperazin-1-yl}-1-oxo-1,3-dihydro-2H-isoindol-2-yl)piperidine-2,6-dione] | 8.48 |
| C[C@@H]1Cc2c([nH]c3ccccc23)[C@@H](c2cnc(N3CCC(CN4CCN(c5ccc6c(c5)CN(C5CCC(=O)NC5=O)C6=O)CC4)CC3)nc2)N1CC(C)(C)F (stereo partly drawn) [Example 1, 3-[5-[4-[[1-[5-[(1R,3R)-2-(2-Fluoro-2-methyl-propyl)-3-methyl-1,3,4,9-tetrahydropyrido[3,4-b]indol-1-yl]pyrimidin-2-yl]-4-piperidyl]methyl]piperazin-1-yl]-1-oxo-isoindolin-2-yl]piperidine-2,6-dione] | 8.51 |
| C[C@@H]1Cc2c([nH]c3ccccc23)[C@@H](c2cnc(N3CCC4(CCN(CCN5CCN(c6ccc7c(c6)CN(C6CCC(=O)NC6=O)C7=O)CC5=O)CC4)CC3)nc2)N1CC(C)(C)F (stereo partly drawn) [Example 26, 3-(5-{4-[2-(9-{5-[(1R,3R)-2-(2-fluoro-2-methylpropyl)-3-methyl-2,3,4,9-tetrahydro-1H-beta-carbolin-1-yl]pyrimidin-2-yl}-3,9-diazaspiro[5.5]undecan-3-yl)ethyl]-3-oxopiperazin-1-yl}-1-oxo-1,3-dihydro-2H-isoindol-2-yl)piperidine-2,6-dione] | 7.74 |

Source: patent US20220169643A1, “ESTROGEN RECEPTOR DEGRADING PROTACS” (AstraZeneca AB, priority 2019, published 2022)
